This note sets out measurements from US6281349A, “Method for nucleic acid purification using iodine” (priority 2000, dated 2001).

What all share (assay type): biochemical
Test [1] has as its target T1, Ribonuclease A (RNAase A, pancreatic ribonuclease) (Bos taurus, UniProt P61823).
T1 sequence (P61823 27-150): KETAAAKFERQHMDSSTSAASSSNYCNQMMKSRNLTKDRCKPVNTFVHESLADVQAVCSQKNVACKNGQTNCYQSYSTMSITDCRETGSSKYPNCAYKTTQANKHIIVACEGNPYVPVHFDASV
The test can be described thus: Residual RNAase activity test of plasmids purified with or without iodine (wheat germ rRNA degradation). The conditions noted are these: 50 mM iodine during potassium acetate precipitation, RNAase A 10 micrograms/mL in cell resuspension buffer, 37° C., 30 min. As for the experimental part:
Plasmids were purified by two methods both using RNAase A at 10 micrograms/mL in the cell resuspension buffer. In the right hand sample 50 mM iodine was included during potassium acetate precipitation of unwanted cellular components. In the center lane iodine was not included in the potassium acetate buffer. These purified plasmid preparations, "plasmid+I2 " and "plasmid-I2 ", respectively were incubated with wheat germ RNA in a sensitive assay designed to test for the presence residual RNAase activity. Wheat germ rRNA (0.5 micrograms in 5 microlitres of resuspension buffer: Soln A) was incubated at 37° C. for 30 min either alone or with 2 microlitres of purified plasmid dissolved in Soln A. The resulting samples were electrophoresed in the presence of SYBR green II to detect the nucleic acids. The 28s and 18s components of wheat germ rRNA were not degraded when incubated with buffer alone (left channel) or with plasmids purified by the method employing RNAase A and iodine (right channel). The rRNA was degraded when incubated with plasmids purified with RNAase and without iodine (center channel).

In the next test the target is T2, DNaseI (Promega) (Bos taurus, UniProt P00639).
T2 construct: purchased Promega
The test can be described thus: Residual nuclease activity test after iodine miniprep (Mg/Ca incubation, supercoiled to nicked plasmid). Conditions: 5 Units DNaseI added to cells, 5 mM MgCl2, CaCl2, 90 minutes at 37° C. As for the experimental part:
(§1) Cells from 1 mL of terrific broth culture of pUC18 in NM522 (EndoI+) were resuspended in 0.2 mL of resuspension buffer (A). #1: No exogenous nuclease, #2:5 micrograms Micrococcal nuclease (MN) (300 units Boehringer Mannheim), #3:5 Units DNaseI (Promega), were added to the respective cell samples before processing for the preparation of the plasmid. After processing by the preferred embodiment Iodine miniprep procedure an aliquot of each sample was made 5 mM each in MgCl2, CaCl2 and 20 mM Tris.HCl pH 8.3. After 90 minutes at 37° C. these were electrophoresed (bottom group) together with aliquots that had not been exposed to Mg/Ca (top group) in a 1% agarose gel with SYBR green II fluorescent dye for detection of nucleic acids.

For test [2], the target named is T3, Endonuclease I (Endo I), endogenous, E. coli NM522 (EndoI+) (Escherichia coli, UniProt P25736).
T3 construct: due to either the endogenous Endo I or to residual activity of either of the added nucleases; endogenous in cells; host or cells: E. coli NM522 (EndoI+)
The description is as above. Conditions: preferred embodiment, 5 mM MgCl2, CaCl2, 90 minutes at 37° C., no exogenous nuclease. As to the method:
as §1

Test [3] has as its target T4, Micrococcal nuclease (MN) (Boehringer Mannheim) (Staphylococcus aureus, UniProt P00644).
T4 construct: purchased Boehringer Mannheim
The test is described as above. The conditions noted are these: 5 micrograms MN (300 units) added to cells, 5 mM MgCl2, CaCl2, 90 minutes at 37° C. As for the experimental part: as §1

T2 sequence (P00639 23-282): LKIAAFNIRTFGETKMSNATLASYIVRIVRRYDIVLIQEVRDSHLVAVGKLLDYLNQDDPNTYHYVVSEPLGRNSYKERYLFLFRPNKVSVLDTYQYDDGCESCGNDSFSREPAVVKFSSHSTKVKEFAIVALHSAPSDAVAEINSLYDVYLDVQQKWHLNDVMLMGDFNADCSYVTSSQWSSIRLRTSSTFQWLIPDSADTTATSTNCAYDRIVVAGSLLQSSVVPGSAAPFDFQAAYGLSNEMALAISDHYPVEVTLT
T3 sequence (P25736 23-235): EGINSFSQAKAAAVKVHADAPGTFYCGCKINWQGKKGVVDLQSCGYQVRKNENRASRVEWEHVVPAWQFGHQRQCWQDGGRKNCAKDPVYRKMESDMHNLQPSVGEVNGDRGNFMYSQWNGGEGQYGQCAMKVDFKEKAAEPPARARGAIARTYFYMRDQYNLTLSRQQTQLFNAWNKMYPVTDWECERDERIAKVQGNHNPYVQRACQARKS

Turning to `II` [iodine], the “inactivation of RNase by iodine” value in test [1] is on record as “effective in inactivating RNAase”. Besides, on DNaseI (Promega), the “inactivation of DNaseI by iodine” value is on record as “lack of conversion of supercoiled plasmid (I) to nicked (II)”. The “inactivation of Endo I by iodine” value in test [2] is reported as “lack of conversion of supercoiled plasmid (I) to nicked (II)”. Besides, the “inactivation of Micrococcal nuclease by iodine” value in test [3] is on record as “lack of conversion of supercoiled plasmid (I) to nicked (II)”.
